Measured values as given in US4517359A, “11-Methyl-11-aza-4-0-cladinosyl-6-0-desosaminyl-15-ethyl-7,1 3,14-trihydroxy-3,5,7,9,12,14-hexamethyl-oxacyclopentadecane-2-one and derivatives thereof” (Sour Pliva farmaceutska, kemijska prehrambena i kozmeticka …, priority 1981, dated 1985).
In brackets after ≈: the same amount, converted by molar mass. Read-outs that look alike come from different tables or passages of the source.

Experiments:
[1] = system: bacteria; conditions: versus erythromycin A (U.S. Pat. No. 3,417,077; Rocz. Chem. 46, 2212-2217, 1972); cited from earlier work
[2] = system: Bacillus subtilis ATCC 6633; test: Minimum Inhibitory Concentration (MIC), in vitro; type: cell-based
[3] = system: series of test microorganisms; test: in vitro test on a series of test microorganisms (MIC), overall; type: cell-based; conditions: test strains of Tables 1 and 2; in comparison with starting 11-aza-10-deoxo-10-dihydro erythromycin A
Method: The new compounds were tested in vitro on a series of test microorganisms.

[4] = system: Sarcina lutea ATCC 9341; test: Minimum Inhibitory Concentration (MIC), in vitro; type: cell-based; conditions: Micrococcus luteus
[5] = system: Staphylococcus epidermidis ATCC 12228; test: Minimum Inhibitory Concentration (MIC), in vitro; type: cell-based
[6] = system: Micrococcus flavus ATCC 10240; test: Minimum Inhibitory Concentration (MIC), in vitro; type: cell-based
[7] = system: Staphylococcus aureus ATCC 6538-P; test: Minimum Inhibitory Concentration (MIC), in vitro; type: cell-based
[8] = system: Streptococcus faecalis ATCC 8043; test: Minimum Inhibitory Concentration (MIC), in vitro; type: cell-based; conditions: Enterococcus faecalis
[9] = system: Bacillus cereus var. mycoides ATCC 11778; test: microbe, parasite or virus in culture; type: cell-based; conditions: ATCC11778, read-out: Minimum Inhibitory Concentration (MIC)
[10] = ATCC6633, Bacillus subtilis ATCC 6633, in vitro, read-out: Minimum Inhibitory Concentration (MIC)
[11] = ATCC9341, Sarcina lutea ATCC 9341, in vitro, read-out: Minimum Inhibitory Concentration (MIC)
[12] = ATCC12228, Staphylococcus epidermidis ATCC 12228, in vitro, read-out: Minimum Inhibitory Concentration (MIC)
[13] = ATCC10240, Micrococcus flavus ATCC 10240, in vitro, read-out: Minimum Inhibitory Concentration (MIC)
[14] = ATCC6538, Staphylococcus aureus ATCC 6538-P, in vitro, read-out: Minimum Inhibitory Concentration (MIC)
[15] = ATCC8043, Streptococcus faecalis ATCC 8043, in vitro, read-out: Minimum Inhibitory Concentration (MIC)

Row | Compound | antibacterial activity compared with the starting antibiotic [1] | MIC [2, 10] [µg/mL] | antibacterial activity in words [3] | MIC [4, 11] [µg/mL] | MIC [5, 12] [µg/mL] | MIC [6, 13] [µg/mL] | MIC [7, 14] [µg/mL] | MIC [8, 15] [µg/mL] | MIC [9] [µg/mL] | MIC ([2]; Bacillus subtilis, ATCC6633, read-out: Minimum Inhibitory Concentration (MIC)) [µg/mL] | MIC ([4]; ATCC9341, read-out: Minimum Inhibitory Concentration (MIC)) [µg/mL] | MIC ([5]; Staphylococcus epidermidis, ATCC12228, read-out: Minimum Inhibitory Concentration (MIC)) [µg/mL] | MIC ([6]; Micrococcus flavus, ATCC10240, read-out: Minimum Inhibitory Concentration (MIC)) [µg/mL] | MIC ([7]; Staphylococcus aureus, ATCC6538, read-out: Minimum Inhibitory Concentration (MIC)) [µg/mL] | MIC ([8]; ATCC8043, read-out: Minimum Inhibitory Concentration (MIC)) [µg/mL]
1 | CC[C@H]1OC(=O)[C@H](C)[C@@H](O[C@H]2C[C@@](C)(OC)[C@@H](O)[C@H](C)O2)[C@H](C)[C@@H](O[C@@H]2O[C@H](C)C[C@H](N(C)C)[C@H]2O)[C@](C)(O)C[C@@H](C)C(=O)[C@H](C)[C@H]2OC(=O)O[C@@]21C [11,12-cyclic carbonate of erythromycin A] | improved antibacterial activity | – | – | – | – | – | – | – | – | – | – | – | – | – | –
2 | CC[C@H]1OC(=O)[C@H](C)[C@@H](O[C@H]2C[C@@](C)(OC)[C@@H](O)[C@H](C)O2)[C@H](C)[C@@H](O[C@@H]2O[C@H](C)C[C@H](N(C)C)[C@H]2O)[C@](C)(O)C[C@@H](C)CN(C)[C@H](C)[C@@H](O)[C@]1(C)O [Example 1, N-methyl-11-aza-10-deoxo-10-dihydro erythromycin A] | – | 0.1 (≈ 0.134 µM) | superior effect on some tested microorganisms | 0.05 (≈ 0.0668 µM) | 0.5 (≈ 0.668 µM) | 0.01 (≈ 0.0134 µM) | 0.5 (≈ 0.668 µM) | 0.01 (≈ 0.0134 µM) | 0.5 (≈ 0.668 µM) | – | – | – | – | – | –
3 | CC[C@H]1OC(=O)[C@H](C)[C@@H](O[C@H]2C[C@@](C)(OC)[C@@H](O)[C@H](C)O2)[C@H](C)[C@@H](O[C@@H]2O[C@H](C)C[C@H](N(C)C)[C@H]2OC(C)=O)[C@](C)(O)C[C@@H](C)CN(C)[C@H](C)[C@@H](O)[C@]1(C)O [Example 2, 2'-acetyl-N-methyl-11-aza-10-deoxo-10-dihydro erythromycin A] | – | – | – | – | – | – | – | – | 0.5 (≈ 0.632 µM) | 0.1 (≈ 0.126 µM) | 0.1 (≈ 0.126 µM) | 0.5 (≈ 0.632 µM) | 0.5 (≈ 0.632 µM) | 0.5 (≈ 0.632 µM) | 0.1 (≈ 0.126 µM)
4 | CC[C@H]1OC(=O)[C@H](C)[C@@H](O[C@H]2C[C@@](C)(OC)[C@@H](OC(C)=O)[C@H](C)O2)[C@H](C)[C@@H](O[C@@H]2O[C@H](C)C[C@H](N(C)C)[C@H]2OC(C)=O)[C@](C)(O)C[C@@H](C)CN(C)[C@H](C)[C@@H](O)[C@]1(C)O [Example 3, 2',4"-diacetyl-N-methyl-11-aza-10-deoxo-10-dihydro erythromycin A] | – | 2.5 (≈ 3 µM) | – | 0.1 (≈ 0.12 µM) | 2.5 (≈ 3 µM) | 0.1 (≈ 0.12 µM) | 0.5 (≈ 0.6 µM) | 0.5 (≈ 0.6 µM) | 0.5 (≈ 0.6 µM) | – | – | – | – | – | –
5 | CC[C@H]1OC(=O)[C@H](C)[C@@H](O[C@H]2C[C@@](C)(OC)[C@@H](OC(C)=O)[C@H](C)O2)[C@H](C)[C@@H](O[C@@H]2O[C@H](C)C[C@H](N(C)C)[C@H]2OC(C)=O)[C@](C)(O)C[C@@H](C)CN(C)[C@H](C)[C@@H](OC(C)=O)[C@]1(C)O [Example 4, 2',4"-13-triacetyl-N-methyl-11-aza-10-deoxo-10-dihydro erythromycin A] | – | – | did not exhibit any satisfactory activity | – | – | – | – | – | – | – | – | – | – | – | –
6 | CCC(=O)O[C@H]1[C@H](O[C@@H]2[C@@H](C)[C@H](O[C@H]3C[C@@](C)(OC)[C@@H](O)[C@H](C)O3)[C@@H](C)C(=O)O[C@H](CC)[C@@](C)(O)[C@H](O)[C@@H](C)N(C)C[C@H](C)C[C@@]2(C)O)O[C@H](C)C[C@@H]1N(C)C [Example 5, 2'-propionyl-N-methyl-11-aza-10-dihydro erythromycin A] | – | 0.5 (≈ 0.621 µM) | – | 0.05 (≈ 0.0621 µM) | 0.05 (≈ 0.0621 µM) | 0.05 (≈ 0.0621 µM) | 0.1 (≈ 0.124 µM) | 0.05 (≈ 0.0621 µM) | 0.5 (≈ 0.621 µM) | – | – | – | – | – | –
7 | CCC(=O)O[C@H]1[C@H](O[C@@H]2[C@@H](C)[C@H](O[C@H]3C[C@@](C)(OC)[C@@H](OC(=O)CC)[C@H](C)O3)[C@@H](C)C(=O)O[C@H](CC)[C@@](C)(O)[C@H](O)[C@@H](C)N(C)C[C@H](C)C[C@@]2(C)O)O[C@H](C)C[C@@H]1N(C)C [Example 6, 2',4"-dipropionyl-N-methyl-11-aza-10-deoxo-10-dihydro erythromycin] | – | 0.1 (≈ 0.116 µM) | – | 0.05 (≈ 0.0581 µM) | 0.1 (≈ 0.116 µM) | 0.5 (≈ 0.581 µM) | 0.5 (≈ 0.581 µM) | 0.1 (≈ 0.116 µM) | 0.5 (≈ 0.581 µM) | – | – | – | – | – | –
8 | CC[C@H]1OC(=O)[C@H](C)[C@@H](O[C@H]2C[C@@](C)(OC)[C@@H](O)[C@H](C)O2)[C@H](C)[C@@H](O[C@@H]2O[C@H](C)C[C@H](N(C)C)[C@H]2O)[C@](C)(O)C[C@@H](C)CN(C)[C@H](C)[C@H]2OC(=O)O[C@@]21C [Example 7, N-methyl-11-aza-10-deoxo-10-dihydro erythromycin A 13,14-cyclic carbonate] | – | 0.1 (≈ 0.129 µM) | – | 0.1 (≈ 0.129 µM) | 0.5 (≈ 0.645 µM) | 0.1 (≈ 0.129 µM) | 0.1 (≈ 0.129 µM) | 0.05 (≈ 0.0645 µM) | 0.1 (≈ 0.129 µM) | – | – | – | – | – | –
9 | CC[C@H]1OC(=O)[C@H](C)[C@@H](O[C@H]2C[C@@](C)(OC)[C@@H](O)[C@H](C)O2)[C@H](C)[C@@H](O[C@@H]2O[C@H](C)C[C@H](N(C)C)[C@H]2OC(C)=O)[C@](C)(O)C[C@@H](C)CN(C)[C@H](C)[C@H]2OC(=O)O[C@@]21C [Example 8, 2'-acetyl-N-methyl-11-aza-10-deoxo-10-dihydro erythromycin A 13,14-cyclic carbonate] | – | 0.1 (≈ 0.122 µM) | – | 0.05 (≈ 0.0612 µM) | 0.5 (≈ 0.612 µM) | 0.1 (≈ 0.122 µM) | 0.1 (≈ 0.122 µM) | 0.05 (≈ 0.0612 µM) | 0.1 (≈ 0.122 µM) | – | – | – | – | – | –
10 | CC[C@H]1OC(=O)[C@H](C)[C@@H](O[C@H]2C[C@@](C)(OC)[C@@H](OC(C)=O)[C@H](C)O2)[C@H](C)[C@@H](O[C@@H]2O[C@H](C)C[C@H](N(C)C)[C@H]2OC(C)=O)[C@](C)(O)C[C@@H](C)CN(C)[C@H](C)[C@H]2OC(=O)O[C@@]21C [Example 9, 2',4"-diacetyl-N-methyl-11-aza-10-deoxo-10-dihydro erythromycin A 13,14-cyclic carbonate] | – | 2.5 (≈ 2.91 µM) | – | 0.1 (≈ 0.116 µM) | 2.5 (≈ 2.91 µM) | 1 (≈ 1.16 µM) | 2.5 (≈ 2.91 µM) | 0.5 (≈ 0.582 µM) | 2.5 (≈ 2.91 µM) | – | – | – | – | – | –
11 | CCC(=O)O[C@H]1[C@H](O[C@@H]2[C@@H](C)[C@H](O[C@H]3C[C@@](C)(OC)[C@@H](O)[C@H](C)O3)[C@@H](C)C(=O)O[C@H](CC)[C@@]3(C)OC(=O)O[C@@H]3[C@@H](C)N(C)C[C@H](C)C[C@@]2(C)O)O[C@H](C)C[C@@H]1N(C)C [Example 10, 2'-propionyl-N-methyl-11-aza-10-deoxo-10-dihydro erythromycin A 13,14-cyclic carbonate] | – | 1 (≈ 1.2 µM) | – | 0.05 (≈ 0.0602 µM) | 0.5 (≈ 0.602 µM) | 0.5 (≈ 0.602 µM) | 0.5 (≈ 0.602 µM) | 0.1 (≈ 0.12 µM) | 0.5 (≈ 0.602 µM) | – | – | – | – | – | –
12 | CCC(=O)O[C@H]1[C@H](O[C@@H]2[C@@H](C)[C@H](O[C@H]3C[C@@](C)(OC)[C@@H](OC(=O)CC)[C@H](C)O3)[C@@H](C)C(=O)O[C@H](CC)[C@@]3(C)OC(=O)O[C@@H]3[C@@H](C)N(C)C[C@H](C)C[C@@]2(C)O)O[C@H](C)C[C@@H]1N(C)C [Example 11, 2',4"-dipropionyl-N-methyl-11-aza-10-deoxo-10-dihydro erythromycin A 13,14-cyclic carbonate] | – | 1 (≈ 1.13 µM) | – | 0.05 (≈ 0.0564 µM) | 2.5 (≈ 2.82 µM) | 0.5 (≈ 0.564 µM) | 2.5 (≈ 2.82 µM) | 0.1 (≈ 0.113 µM) | 1 (≈ 1.13 µM) | – | – | – | – | – | –
13 | CC[C@H]1OC(=O)[C@H](C)[C@@H](O[C@H]2C[C@@](C)(OC)[C@@H](O)[C@H](C)O2)[C@H](C)[C@@H](O[C@@H]2O[C@H](C)C[C@H](N(C)C)[C@H]2O)[C@](C)(O)C[C@@H](C)CN[C@H](C)[C@@H](O)[C@]1(C)O [Standard, 11-aza-10-deoxo-10-dihydro erythromycin A, reference compound] | – | 0.5 (≈ 0.68 µM) | – | 0.05 (≈ 0.068 µM) | 0.5 (≈ 0.68 µM) | 0.05 (≈ 0.068 µM) | 0.5 (≈ 0.68 µM) | 0.05 (≈ 0.068 µM) | 0.5 (≈ 0.68 µM) | – | – | – | – | – | –
